# Non-standard residues stand in square brackets, D forms with d. Residues, ends and D or L forms follow the SMILES beside them. Nle = CCCC[C@H](N)C(=O)O
# How the values were obtained:
# [1] = tested on: Hs27 cells (human foreskin fibroblast cell line); assay: MTT cytotoxicity assay
# Description: (§1) The assessment of antifungal potential of synthesized agents was carried out using four reference strains (C. albicans ATCC 10231, C. albicans SC5314, C. glabrata DSM […] and C. krusei DSM […]) and six clinical isolates of fluconazole-resistant C. albicans that were provided by the Hospital of Medical University of Gdansk, Poland. Moreover, four C. albicans isolates, assigned as B3, B4, Gu4 and Gu5, were used for investigation whether the synthesized fluconazole derivatives were effectively removed from the yeast cells by the drug efflux transporters, as in the case of fluconazole. These strains were kindly provided by Prof. Joachim Morschhäuser from University of Würzburg (Würzburg, Germany). Strains Gu4 and B3 were fluconazole-sensitive isolates obtained from early infection episodes, while Gu5 and B4 were the corresponding fluconazole-resistant isolates obtained from later episodes in the same patients treated with fluconazole. The lack of susceptibility of the Gu5 strain to fluconazole was a consequence of overexpression of CDR1/2 genes encoding ABC transporters, whereas the resistance of B4 strain was caused by overexpression of the MDR1 gene encoding a membrane transport protein of the major facilitator superfamily (MFS). All of these Candida spp. strains were maintained on YPD agar plates (1% (w/v) yeast extract, 2% (w/v) peptone, 2% (w/v) glucose, 2% (w/v) agar) at 30 °C for 16–24 h. For all of the assays aimed at assessing the antifungal potential of the synthesized agents, the yeasts were cultivated at 37 °C in RPMI 1640 medium (with L-glutamine, without sodium bicarbonate, Sigma-Aldrich, Darmstadt, Germany)) buffered to a pH of 7.0 with 0.165 M morpholinepropanesulfonic acid (MOPS) buffer (Sigma-Aldrich). In this study, we used the human foreskin fibroblast cell line Hs27 (ATCC CRL 1634TM) and the human endothelial cell line HUVEC (C2519A), purchased from Lonza Group AG, (Basel, Switzerland). The Hs27 cells were maintained in cell media consisting of Dulbecco’s modified Eagles medium (DMEM), (Corning, Arizona, USA) with 10% fetal bovine serum (FBS), (Corning, Port Elizabeth, South Africa), 1% penicillin/streptomycin (Sigma-Aldrich Inc., Darmstadt, Germany), and 1% L-glutamine (Corning, Arizona, USA). The human endothelial cell line was maintained in cell media consisting of Endothelial Cell Growth Medium-2 Single Quots Kit (Lonza, USA). Both cell lines were cultured in an incubator at 37 °C and 5% CO2.
# (§2) Hs27 and HUVEC mammalian cell lines were cultured as mentioned above. Once cell lines were about 80% confluent, cells were counted by a hemacytometer (Hausser Scientific, Horsham, PA, USA) and plated in 96-well microtiter plates at concentrations of 4500 cells per well for Hs27 and 2000 cells per well for HUVEC. Cells were allowed to attach overnight. […] The final concentration of DMSO was ensured to be around 1% in all experiments. Cells were incubated with studied compounds for 72 h at 37 °C and 5% CO2. After incubation, 20 µL of MTT solution in PBS (4 mg/mL) was added to all wells and incubated further for 3 h at 37 °C. Formed formazan crystals were dissolved in 150 µL DMSO, and absorbance was measured using an Asys UVM340 multi-well plate reader at λ = 540 nm. Cytotoxicity was determined compared to drug-free control. All experiments were performed in biological triplicates.
# MTT cytotoxicity assay [2] = conditions: human, Hs27 cells (human foreskin fibroblast cell line)
# Description: as §1, §2
# [3] = in vivo; cited from earlier work
# Description: Fluconazole is water-soluble, safe for patients even at a high daily dose ([…]), can be applied either intravenously or orally, and has a beneficial pharmacokinetic profile and broad spectrum of activity.
# Candida albicans 190 = assay: microbe, parasite or virus in culture; conditions: Candida albicans, 190, 24 h, pH 7
# Description: as §1
# (§3) Antifungal activity of the tested compounds against yeast cells was determined in 96-well plates as described in the CLSI document M27-A3 [39], with minor modifications (CLSI, 2008). […] The plates were incubated for 24 h at 37 °C. Each test was performed in triplicate. The final concentration of DMSO was ensured to be around 1% in all experiments.
# (§4) For determination of minimum fungicidal concentrations (MFC), small aliquots of suspensions (around 10 μL) from each well were transferred using the pipette to YPD agar plates without inhibitors and incubated for 24 h at 37 °C.
# [4] = tested on: Candida albicans ATCC 10231; assay: microbe, parasite or virus in culture; conditions: Candida albicans, ATCC10231, 24 h, pH 7
# Description: as §1, §3, §4
# Candida albicans 247 = assay: microbe, parasite or virus in culture; conditions: Candida albicans, 247, 24 h, pH 7
# Description: as §1, §3, §4
# Candida albicans B4 = assay: microbe, parasite or virus in culture; conditions: Candida albicans, B4, 24 h, pH 7
# Description: as §1, §3, §4
# Candida albicans 604 = assay: microbe, parasite or virus in culture; conditions: Candida albicans, 604, 24 h, pH 7
# Description: as §1, §3, §4
# Candida albicans Gu5 = assay: microbe, parasite or virus in culture; conditions: Candida albicans, GU5, 24 h, pH 7
# Description: as §1, §3, §4
# Candida albicans 48 = assay: microbe, parasite or virus in culture; conditions: Candida albicans, 48, 24 h, pH 7
# Description: as §1, §3, §4
# Candida albicans SC 5314 = assay: microbe, parasite or virus in culture; conditions: Candida albicans, SC5314, 24 h, pH 7
# Description: as §1, §3, §4
# [5] = tested on: Candida glabrata DSM 6128; assay: microbe, parasite or virus in culture; conditions: Nakaseomyces glabratus, DSM6128, 24 h, pH 7
# Description: as §1, §3, §4
# Candida albicans 138 = assay: microbe, parasite or virus in culture; conditions: Candida albicans, 138, 24 h, pH 7
# Description: as §1, §3, §4
# Candida albicans B3 = assay: microbe, parasite or virus in culture; conditions: Candida albicans, B3, 24 h, pH 7
# Description: as §1, §3, §4
# Candida albicans 574 = assay: microbe, parasite or virus in culture; conditions: Candida albicans, 574, 24 h, pH 7
# Description: as §1, §3, §4
# Candida albicans Gu4 = assay: microbe, parasite or virus in culture; conditions: Candida albicans, GU4, 24 h, pH 7
# Description: as §1, §3, §4
# Candida krusei DSM 11226 = assay: microbe, parasite or virus in culture; conditions: Pichia kudriavzevii, DSM11226, 24 h, pH 7
# Description: as §1, §3, §4
# C. albicans SC5314 [6] = assay: Membrane permeabilization assay by propidium iodide uptake (flow cytometry, fluorescence microscopy); assay type: cell-based, Candida albicans
# Description: Suspensions of C. albicans SC5314 were prepared by taking one loop of pure culture growth from 24 h YPD agar plates into RPMI 1640 medium and adjusting optical density to 0.1 at 660 nm wavelength. […] The cell suspensions were then treated for 0.5, 2, 4, 6, and 24 h at 37 °C with continuous agitation (180 rpm). The cells were then centrifuged and resuspended in 200 µL of PBS buffer (pH 7.4). Subsequently, cells were treated with propidium iodide (1 mg/mL, final concentration) and incubated for 30 min at room temperature in the dark. Cellular fluorescence was visualized using lens 20×, using Olympus Fluorescence Microscope BX60 (Olympus, Tokyo, Japan). The images were also post-processed utilizing cell Sens program. The fluorescence intensity emitted by DNA-bound propidium iodide was measured using a flow cytometer (Merck Millipore guava easyCyte 8, Darmstadt, Germany). Data were obtained from at least two independent experiments.
# [7] = tested on: HUVEC cells (human umbilical venous endothelial primary cells); assay: MTT cytotoxicity assay
# Description: as §1, §2
# MTT cytotoxicity assay [8] = conditions: human
# Description: as §1, §2
# C. glabrata DSM 11226 = conditions: C. glabrata DSM 11226, RPMI-1640, 200 – 0.4 μg/mL range
# Description: (§5) The selective activities of the FLC-conjugates were calculated according to the following formula
# (§6) (1 picture or pasted object on this page, not shown here)
# C. tropicalis (clinical) = conditions: RPMI-1640, 200 – 0.4 μg/mL range
# Description: as §5, §6
# C. krusei DSM 6128 = conditions: C. krusei DSM 6128, RPMI-1640, 200 – 0.4 μg/mL range
# Description: as §5, §6
# C. albicans ATCC 10231 = conditions: C. albicans ATCC 10231, RPMI-1640, 200 – 0.4 μg/mL range
# Description: as §5, §6
# C. parapsilosis DSM 5784 = conditions: C. parapsilosis DSM 5784, RPMI-1640, 200 – 0.4 μg/mL range
# Description: as §5, §6
# C. albicans SC5314 [9] = conditions: C. albicans SC5314, RPMI-1640, 200 – 0.4 μg/mL range
# Description: as §5, §6
# [10] = tested on: C. albicans opt1-opt5Δptr2Δptr22Δ; conditions: RPMI-1640, 200 – 0.4 μg/mL range
# Description: as §5, §6
structure (smiles),measurement,setting,value
"OC(Cn1cncn1)(Cn1cncn1)c1ccc(F)cc1F [FLC, fluconazole]",In vitro cytotoxicity IC90 ± SEM,[1],>100 µM
same,IC50 at 72 h,MTT cytotoxicity assay [2],> 100 µM
same,incidence rate of azole-induced liver injury,[3],1%
same,MIC90,Candida albicans 190,> 250 µM
same,MIC50,[4],< 8 µM
same,MIC90,[4],< 8 µM
same,MIC90,Candida albicans 247,> 250 µM
same,MIC90,Candida albicans B4,62 µM
same,MIC90,Candida albicans 604,> 250 µM
same,MIC90,Candida albicans Gu5,> 250 µM
same,MIC90,Candida albicans 48,> 250 µM
same,MIC50,Candida albicans SC 5314,< 8 µM
same,MIC90,Candida albicans SC 5314,< 8 µM
same,MIC50,[5],62 µM
same,MIC90,[5],250 µM
same,MIC90,Candida albicans 138,> 250 µM
same,MIC90,Candida albicans B3,15 µM
same,MIC90,Candida albicans 574,> 250 µM
same,MIC90,Candida albicans Gu4,31 µM
same,MIC50,Candida krusei DSM 11226,70 µM
same,MIC90,Candida krusei DSM 11226,125 µM
same,"cell membrane disruption (PI uptake), in words","C. albicans SC5314 [6]; C. albicans SC5314, 8 × MIC (62 µM), 4 or 6 h",No symptoms of cell membrane disruption
same,"Dead (%), PI uptake by flow cytometry","C. albicans SC5314 [6]; SC5314, 4 h","2,50%"
same,"Live (%), PI uptake by flow cytometry","C. albicans SC5314 [6]; SC5314, 4 h","97,5%"
same,"Dead (%), PI uptake by flow cytometry","C. albicans SC5314 [6]; SC5314, 6 h","2,83%"
same,"Live (%), PI uptake by flow cytometry","C. albicans SC5314 [6]; SC5314, 6 h","97,2%"
same,In vitro cytotoxicity IC90 ± SEM,[7],>100 µM
same,IC50 at 72 h,MTT cytotoxicity assay [8],> 100 µM
"CCCC[C@H](NC(=O)[C@H](CCCNC(=N)N)NC(=O)[C@H](Cc1c[nH]c2ccccc12)NC(=O)[C@H](CCC(N)=O)NC(=O)[C@H](Cc1c[nH]c2ccccc12)NC(=O)[C@H](CCCNC(=N)N)NC(=O)[C@H](CCCNC(=N)N)NC(=O)[C@H](CS)NC(=O)[C@H](CCCCN)NC(=O)[C@H](Cc1ccccc1)NC(=O)[C@@H](N)CCCC)C(=O)N[C@@H](CCCCN)C(=O)N[C@@H](CCCCN)C(=O)N[C@@H](CC(C)C)C(=O)NCC(N)=O [LFacinB[Nle^1,11]-NH2] (H-[Nle]FKCRRWQWR[Nle]KKLG-NH2; N-terminus assumed)",MIC50,C. glabrata DSM 11226,> 100 µg/mL
same,MIC90,C. glabrata DSM 11226,> 100 µg/mL
same,MIC50,C. tropicalis (clinical),50 µg/mL
same,MIC90,C. tropicalis (clinical),> 100 µg/mL
same,MIC50,C. krusei DSM 6128,100 µg/mL
same,MIC90,C. krusei DSM 6128,100 µg/mL
same,MIC50,C. albicans ATCC 10231,> 100 µg/mL
same,MIC90,C. albicans ATCC 10231,> 100 µg/mL
same,MIC50,C. parapsilosis DSM 5784,> 100 µg/mL
same,MIC90,C. parapsilosis DSM 5784,> 100 µg/mL
CC[C@H](C)[C@H](NC(=O)[C@H](CCCCN)NC(=O)[C@H](CCCCN)NC(=O)[C@H](C)NC(=O)[C@H](CC(C)C)NC(=O)[C@H](C)NC(=O)[C@H](C)NC(=O)[C@H](CC(C)C)NC(=O)[C@H](C)NC(=O)[C@H](CCCCN)NC(=O)[C@H](CC(C)C)NC(=O)[C@H](CC(N)=O)NC(=O)[C@@H](NC(=O)[C@H](CCCCN)NC(=O)CNC(=O)[C@H](CC(C)C)NC(=O)[C@H](CC(C)C)NC(=O)[C@H](Cc1ccc(O)cc1)NC(=O)CNC(=O)[C@H](C)N)[C@@H](C)CC)C(=O)N[C@@H](CC(C)C)C(N)=O [TP10-NH2],MIC50,C. glabrata DSM 11226,200 µg/mL
same,MIC90,C. glabrata DSM 11226,200 µg/mL
same,MIC50,C. albicans SC5314 [9],50 µg/mL
same,MIC90,C. albicans SC5314 [9],50 µg/mL
same,MIC50,C. krusei DSM 6128,50 µg/mL
same,MIC90,C. krusei DSM 6128,50 µg/mL
same,MIC50,C. albicans ATCC 10231,200 µg/mL
same,MIC90,C. albicans ATCC 10231,200 µg/mL
same,MIC50,[10],25 µg/mL
same,MIC90,[10],25 µg/mL

# From PMC9026428, “New Peptide Based Fluconazole Conjugates with Expanded Molecular Targets” (Pharmaceutics, 2022)
